# Laboratory results: article PMC8359378 (British Journal of Clinical Pharmacology, 2021)
# Marks after values point to notes of the source that are not given here.
# Key:
# [1] = tested on: monkey nail‐cut bleeding model; details: preclinical; cited from earlier work
# [2] = target: factor XI coagulation activity (FXI:C) (Homo sapiens, UniProt P03951); assay: factor XI coagulation activity; type: in vivo
# healthy subjects = assay: safety and tolerability; type: in vivo, human; details: Part A; for Abdominal pain upper TEAE, subjects / All TEAEs, subjects / Dizziness TEAE, subjects / Gonorrhoea TEAE, subjects / Headache TEAE, subjects / Lethargy TEAE, subjects / Nasopharyngitis TEAE, subjects / Nausea TEAE, subjects / Pain TEAE, subjects / Skin laceration TEAE, subjects / Thrombocytopenia TEAE, subjects: fasted
# [3] = Part A, single dose 1 mg, fasted
# [4] = Part A, single dose 5 mg, fasted
# [5] = Part A, single dose 20 mg, fasted
# [6] = Part A, single dose 80 mg, fasted
# [7] = Part A, single dose 150 mg, fasted
# [8] = Part A, single dose 300 mg, fasted
# Chain of factor XI coagulation activity (FXI:C) (P03951 388-625 limits assumed): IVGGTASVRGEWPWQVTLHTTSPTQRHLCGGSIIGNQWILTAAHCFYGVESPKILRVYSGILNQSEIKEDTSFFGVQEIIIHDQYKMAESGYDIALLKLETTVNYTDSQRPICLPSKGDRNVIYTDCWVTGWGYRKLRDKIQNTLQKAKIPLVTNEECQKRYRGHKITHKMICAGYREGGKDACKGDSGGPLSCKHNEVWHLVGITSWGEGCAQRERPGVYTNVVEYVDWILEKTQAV
# Chain of factor XI coagulation activity (FXI:C) (P03951 19-387 partner limits assumed): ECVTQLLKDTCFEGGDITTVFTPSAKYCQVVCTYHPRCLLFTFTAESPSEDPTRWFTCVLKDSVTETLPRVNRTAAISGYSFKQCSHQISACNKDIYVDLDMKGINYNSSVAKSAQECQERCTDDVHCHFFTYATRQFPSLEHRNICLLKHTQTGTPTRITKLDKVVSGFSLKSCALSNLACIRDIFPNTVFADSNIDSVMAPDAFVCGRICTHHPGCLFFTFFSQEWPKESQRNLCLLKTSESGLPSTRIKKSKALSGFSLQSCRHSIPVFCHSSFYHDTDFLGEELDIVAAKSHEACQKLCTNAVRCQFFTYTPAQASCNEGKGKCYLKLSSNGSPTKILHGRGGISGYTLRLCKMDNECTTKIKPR
smiles,measurement,setting,value
Nc1ccc(-c2nc([C@H]3CCc4cc(-c5cc(Cl)ccc5-n5cnnn5)cc(=O)n43)c(F)[nH]2)c(F)n1 [ONO‐7684],bleeding time,[1],did not prolong bleeding time
same,time of maximal inhibition of FXI:C post‐dose,"[2]; Part A, 80 mg fed group",approximately 8 hours
same,time of return of FXI:C and aPTT to near baseline levels post‐dose,"[2]; Part A, 80, 150 and 300 mg",≤ 72 h
same,time the effects on FXI:C and aPTT were maintained,"[2]; Part A, 80, 150 and 300 mg",up to 24 hours
same,"FXI:C Day 1 24 hours RTB, mean ± SD",[2]; [3],0.95 ± 0.141
same,"FXI:C Day 1 24 hours inhibition, mean ± SD",[2]; [3],5 ± 14.1%
same,"FXI:C Maximum on treatment inhibition, mean ± SD",[2]; [3],13 ± 7.7%
same,"FXI:C Day 1 24 hours RTB, mean ± SD",[2]; [4],0.95 ± 0.049
same,"FXI:C Day 1 24 hours inhibition, mean ± SD",[2]; [4],5 ± 4.9%
same,"FXI:C Maximum on treatment inhibition, mean ± SD",[2]; [4],10 ± 2.6%
same,"FXI:C Minimum on treatment RTB, mean ± SD",[2]; [4],0.90 ± 0.026
same,"FXI:C Day 1 24 hours RTB, mean ± SD",[2]; [5],0.95 ± 0.185
same,"FXI:C Day 1 24 hours inhibition, mean ± SD",[2]; [5],5 ± 18.5%
same,"FXI:C Maximum on treatment inhibition, mean ± SD",[2]; [5],29 ± 4.8%
same,"FXI:C Minimum on treatment RTB, mean ± SD",[2]; [5],0.71 ± 0.048
same,"FXI:C Day 1 24 hours RTB, mean ± SD",[2]; [6],0.61 ± 0.051
same,"FXI:C Day 1 24 hours inhibition, mean ± SD",[2]; [6],39 ± 5.1%
same,"FXI:C Maximum on treatment inhibition, mean ± SD",[2]; [6],69 ± 7.0%
same,"FXI:C Minimum on treatment RTB, mean ± SD",[2]; [6],0.31 ± 0.070
same,"FXI:C Day 1 24 hours RTB, mean ± SD","[2]; Part A, single dose 80 mg, fed",0.61 ± 0.066
same,"FXI:C Day 1 24 hours inhibition, mean ± SD","[2]; Part A, single dose 80 mg, fed",39 ± 6.6%
same,"FXI:C Maximum on treatment inhibition, mean ± SD","[2]; Part A, single dose 80 mg, fed",54 ± 8.9%
same,"FXI:C Minimum on treatment RTB, mean ± SD","[2]; Part A, single dose 80 mg, fed",0.46 ± 0.089
same,"FXI:C Day 1 24 hours RTB, mean ± SD",[2]; [7],0.48 ± 0.057
same,"FXI:C Maximum on treatment inhibition, mean ± SD",[2]; [7],78 ± 3.4%
same,"FXI:C Minimum on treatment RTB, mean ± SD",[2]; [7],0.22 ± 0.034
same,"FXI:C Day 1 24 hours RTB, mean ± SD",[2]; [8],0.26 ± 0.089
same,"FXI:C Day 1 24 hours inhibition, mean ± SD",[2]; [8],74 ± 8.9%
same,time of maximal inhibition of FXI:C post‐dose,"[2]; Part A, single dose of 20–300 mg",approximately 4 hours
same,"FXI:C Minimum on treatment RTB, mean ± SD","[2]; Part B, 80 mg QD for 14 days, fed",0.25 ± 0.077
same,"FXI:C Day 1 24 hours RTB, mean ± SD","[2]; Part B, 80 mg QD, fed",0.67 ± 0.035
same,"FXI:C Day 14 24 hours RTB, mean ± SD","[2]; Part B, 80 mg QD, fed",0.39 ± 0.111
same,"FXI:C Minimum on treatment RTB, mean ± SD","[2]; Part B, 150 mg QD for 14 days, fed",0.15 ± 0.052
same,"FXI:C Day 1 24 hours RTB, mean ± SD","[2]; Part B, 150 mg QD, fed",0.48 ± 0.112
same,"FXI:C Day 14 24 hours RTB, mean ± SD","[2]; Part B, 150 mg QD, fed",0.27 ± 0.096
same,"FXI:C Day 1 24 hours RTB, mean ± SD","[2]; Part B, 250 mg QD, fed",0.33 ± 0.065
same,"FXI:C Day 14 24 hours RTB, mean ± SD","[2]; Part B, 250 mg QD, fed",0.14 ± 0.053
same,time of maximal inhibition of FXI:C post‐dose,"[2]; Part B, first dose of 80, 150 and 250 mg",approximately 4 hours
same,"treatment‐related TEAE of lethargy (mild), subjects",healthy subjects; 5 mg group,16.7%
same,"treatment‐related TEAE of headache (moderate), subjects",healthy subjects; 300 mg group,16.7%
same,"Abdominal pain upper TEAE, subjects",healthy subjects; single dose 1 mg,0 n (%)
same,"All TEAEs, subjects",healthy subjects; single dose 1 mg,0 n (%)
same,"Dizziness TEAE, subjects",healthy subjects; single dose 1 mg,0 n (%)
same,"Gonorrhoea TEAE, subjects",healthy subjects; single dose 1 mg,0 n (%)
same,"Headache TEAE, subjects",healthy subjects; single dose 1 mg,0 n (%)
same,"Lethargy TEAE, subjects",healthy subjects; single dose 1 mg,0 n (%)
same,"Nasopharyngitis TEAE, subjects",healthy subjects; single dose 1 mg,0 n (%)
same,"Nausea TEAE, subjects",healthy subjects; single dose 1 mg,0 n (%)
same,"Pain TEAE, subjects",healthy subjects; single dose 1 mg,0 n (%)
same,"Skin laceration TEAE, subjects",healthy subjects; single dose 1 mg,0 n (%)
same,"Thrombocytopenia TEAE, subjects",healthy subjects; single dose 1 mg,0 n (%)
same,"Abdominal pain upper TEAE, subjects",healthy subjects; single dose 5 mg,0 n (%)
same,"All TEAEs, subjects",healthy subjects; single dose 5 mg,1 (16.7) n (%)
same,"Dizziness TEAE, subjects",healthy subjects; single dose 5 mg,0 n (%)
same,"Gonorrhoea TEAE, subjects",healthy subjects; single dose 5 mg,0 n (%)
same,"Headache TEAE, subjects",healthy subjects; single dose 5 mg,0 n (%)
same,"Lethargy TEAE, subjects",healthy subjects; single dose 5 mg,1 (16.7)^b n (%)
same,"Nasopharyngitis TEAE, subjects",healthy subjects; single dose 5 mg,1 (16.7) n (%)
same,"Nausea TEAE, subjects",healthy subjects; single dose 5 mg,0 n (%)
same,"Pain TEAE, subjects",healthy subjects; single dose 5 mg,0 n (%)
same,"Skin laceration TEAE, subjects",healthy subjects; single dose 5 mg,0 n (%)
same,"Thrombocytopenia TEAE, subjects",healthy subjects; single dose 5 mg,0 n (%)
same,"Abdominal pain upper TEAE, subjects",healthy subjects; single dose 20 mg,1 (16.7) n (%)
same,"All TEAEs, subjects",healthy subjects; single dose 20 mg,1 (16.7) n (%)
same,"Dizziness TEAE, subjects",healthy subjects; single dose 20 mg,1 (16.7) n (%)
same,"Gonorrhoea TEAE, subjects",healthy subjects; single dose 20 mg,0 n (%)
same,"Headache TEAE, subjects",healthy subjects; single dose 20 mg,0 n (%)
same,"Lethargy TEAE, subjects",healthy subjects; single dose 20 mg,0 n (%)
same,"Nasopharyngitis TEAE, subjects",healthy subjects; single dose 20 mg,0 n (%)
same,"Nausea TEAE, subjects",healthy subjects; single dose 20 mg,1 (16.7) n (%)
same,"Pain TEAE, subjects",healthy subjects; single dose 20 mg,0 n (%)
same,"Skin laceration TEAE, subjects",healthy subjects; single dose 20 mg,0 n (%)
same,"Thrombocytopenia TEAE, subjects",healthy subjects; single dose 20 mg,0 n (%)
same,"Abdominal pain upper TEAE, subjects",healthy subjects; single dose 80 mg,0 n (%)
same,"All TEAEs, subjects",healthy subjects; single dose 80 mg,2 (33.3) n (%)
same,"Dizziness TEAE, subjects",healthy subjects; single dose 80 mg,0 n (%)
same,"Gonorrhoea TEAE, subjects",healthy subjects; single dose 80 mg,1 (16.7) n (%)
same,"Headache TEAE, subjects",healthy subjects; single dose 80 mg,1 (16.7) n (%)
same,"Lethargy TEAE, subjects",healthy subjects; single dose 80 mg,0 n (%)
same,"Nasopharyngitis TEAE, subjects",healthy subjects; single dose 80 mg,0 n (%)
same,"Nausea TEAE, subjects",healthy subjects; single dose 80 mg,0 n (%)
same,"Pain TEAE, subjects",healthy subjects; single dose 80 mg,0 n (%)
same,"Skin laceration TEAE, subjects",healthy subjects; single dose 80 mg,0 n (%)
